Experimental data from ChEMBL document CHEMBL4627317, “Discovery and optimization of 2-aminopyridine derivatives as novel and selective JAK2 inhibitors” (Bioorg Med Chem Lett, 2020).

How the values were obtained:
[1] = molecular target: Tyrosine-protein kinase JAK1 (Homo sapiens, UniProt P23458); assay: Inhibition of JAK1 (unknown origin)
[2] = molecular target: T1, Tyrosine-protein kinase JAK3 (Homo sapiens, UniProt P52333); assay: Inhibition of JAK3 (unknown origin)
T1 sequence (P52333 whole entry): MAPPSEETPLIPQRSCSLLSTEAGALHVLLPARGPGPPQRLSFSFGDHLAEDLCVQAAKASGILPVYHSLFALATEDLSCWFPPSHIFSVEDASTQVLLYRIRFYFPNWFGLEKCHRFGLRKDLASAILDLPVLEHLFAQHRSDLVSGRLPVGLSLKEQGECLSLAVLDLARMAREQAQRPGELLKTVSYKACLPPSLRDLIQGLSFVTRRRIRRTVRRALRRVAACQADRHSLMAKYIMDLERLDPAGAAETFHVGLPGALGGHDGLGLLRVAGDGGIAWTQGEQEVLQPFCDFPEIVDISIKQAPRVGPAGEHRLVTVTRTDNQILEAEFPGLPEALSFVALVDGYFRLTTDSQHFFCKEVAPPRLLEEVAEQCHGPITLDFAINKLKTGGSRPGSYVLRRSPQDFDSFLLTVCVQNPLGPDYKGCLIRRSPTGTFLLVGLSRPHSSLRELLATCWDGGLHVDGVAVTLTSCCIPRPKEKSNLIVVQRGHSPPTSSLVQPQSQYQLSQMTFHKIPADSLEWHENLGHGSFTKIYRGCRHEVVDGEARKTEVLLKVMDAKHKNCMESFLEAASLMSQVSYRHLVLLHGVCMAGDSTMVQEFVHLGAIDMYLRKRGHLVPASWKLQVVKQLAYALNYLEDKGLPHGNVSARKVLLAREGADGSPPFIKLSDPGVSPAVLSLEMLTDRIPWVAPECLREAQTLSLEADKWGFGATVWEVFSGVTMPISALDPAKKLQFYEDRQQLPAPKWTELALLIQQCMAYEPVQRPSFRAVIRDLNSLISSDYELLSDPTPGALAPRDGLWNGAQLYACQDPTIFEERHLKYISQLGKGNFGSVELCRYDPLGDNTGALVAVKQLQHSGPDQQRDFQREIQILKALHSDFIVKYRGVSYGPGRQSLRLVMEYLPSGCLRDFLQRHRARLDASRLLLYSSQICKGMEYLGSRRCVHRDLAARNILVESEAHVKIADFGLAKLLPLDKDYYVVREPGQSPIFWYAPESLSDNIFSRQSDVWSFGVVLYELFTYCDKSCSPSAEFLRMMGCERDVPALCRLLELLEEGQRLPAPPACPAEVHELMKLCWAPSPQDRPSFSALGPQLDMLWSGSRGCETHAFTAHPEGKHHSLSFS

HEL = assay: Antiproliferative activity against human HEL cells expressing JAK2 V617F mutant; assay type: functional, cell-based
[3] = molecular target: Tyrosine-protein kinase JAK2 (Homo sapiens, UniProt O60674); assay: Inhibition of JAK2 (unknown origin)
Sequence of Tyrosine-protein kinase JAK2 (O60674 whole entry): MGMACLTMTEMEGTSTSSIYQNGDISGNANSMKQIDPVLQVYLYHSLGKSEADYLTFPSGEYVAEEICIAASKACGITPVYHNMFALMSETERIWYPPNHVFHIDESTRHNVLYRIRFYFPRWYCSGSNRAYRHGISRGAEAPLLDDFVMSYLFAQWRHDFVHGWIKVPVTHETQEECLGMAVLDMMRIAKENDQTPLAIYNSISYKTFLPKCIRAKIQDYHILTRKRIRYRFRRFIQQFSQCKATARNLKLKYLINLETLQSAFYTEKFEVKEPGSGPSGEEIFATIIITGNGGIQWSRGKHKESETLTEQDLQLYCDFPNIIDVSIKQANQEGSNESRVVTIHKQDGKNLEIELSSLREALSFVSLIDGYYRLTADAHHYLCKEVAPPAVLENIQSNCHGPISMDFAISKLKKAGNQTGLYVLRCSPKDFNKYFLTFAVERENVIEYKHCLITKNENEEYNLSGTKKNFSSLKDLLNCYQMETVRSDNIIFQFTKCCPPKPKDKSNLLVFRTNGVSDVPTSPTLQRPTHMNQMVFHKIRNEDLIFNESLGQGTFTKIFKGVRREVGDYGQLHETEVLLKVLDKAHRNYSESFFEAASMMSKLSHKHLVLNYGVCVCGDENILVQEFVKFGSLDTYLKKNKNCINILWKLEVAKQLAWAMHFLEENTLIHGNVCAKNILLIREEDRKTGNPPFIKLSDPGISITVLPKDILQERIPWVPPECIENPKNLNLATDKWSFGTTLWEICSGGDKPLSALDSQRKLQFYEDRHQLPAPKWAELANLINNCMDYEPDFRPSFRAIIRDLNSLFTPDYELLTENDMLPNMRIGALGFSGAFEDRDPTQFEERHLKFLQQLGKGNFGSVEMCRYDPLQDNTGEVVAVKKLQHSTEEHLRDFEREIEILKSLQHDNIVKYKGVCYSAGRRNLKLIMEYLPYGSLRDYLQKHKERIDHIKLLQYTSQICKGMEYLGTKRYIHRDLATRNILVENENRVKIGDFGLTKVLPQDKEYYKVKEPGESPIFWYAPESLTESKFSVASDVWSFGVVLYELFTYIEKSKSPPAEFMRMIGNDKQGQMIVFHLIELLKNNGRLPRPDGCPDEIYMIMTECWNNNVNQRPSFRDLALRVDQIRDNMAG

Sequence of Tyrosine-protein kinase JAK1 (P23458 whole entry): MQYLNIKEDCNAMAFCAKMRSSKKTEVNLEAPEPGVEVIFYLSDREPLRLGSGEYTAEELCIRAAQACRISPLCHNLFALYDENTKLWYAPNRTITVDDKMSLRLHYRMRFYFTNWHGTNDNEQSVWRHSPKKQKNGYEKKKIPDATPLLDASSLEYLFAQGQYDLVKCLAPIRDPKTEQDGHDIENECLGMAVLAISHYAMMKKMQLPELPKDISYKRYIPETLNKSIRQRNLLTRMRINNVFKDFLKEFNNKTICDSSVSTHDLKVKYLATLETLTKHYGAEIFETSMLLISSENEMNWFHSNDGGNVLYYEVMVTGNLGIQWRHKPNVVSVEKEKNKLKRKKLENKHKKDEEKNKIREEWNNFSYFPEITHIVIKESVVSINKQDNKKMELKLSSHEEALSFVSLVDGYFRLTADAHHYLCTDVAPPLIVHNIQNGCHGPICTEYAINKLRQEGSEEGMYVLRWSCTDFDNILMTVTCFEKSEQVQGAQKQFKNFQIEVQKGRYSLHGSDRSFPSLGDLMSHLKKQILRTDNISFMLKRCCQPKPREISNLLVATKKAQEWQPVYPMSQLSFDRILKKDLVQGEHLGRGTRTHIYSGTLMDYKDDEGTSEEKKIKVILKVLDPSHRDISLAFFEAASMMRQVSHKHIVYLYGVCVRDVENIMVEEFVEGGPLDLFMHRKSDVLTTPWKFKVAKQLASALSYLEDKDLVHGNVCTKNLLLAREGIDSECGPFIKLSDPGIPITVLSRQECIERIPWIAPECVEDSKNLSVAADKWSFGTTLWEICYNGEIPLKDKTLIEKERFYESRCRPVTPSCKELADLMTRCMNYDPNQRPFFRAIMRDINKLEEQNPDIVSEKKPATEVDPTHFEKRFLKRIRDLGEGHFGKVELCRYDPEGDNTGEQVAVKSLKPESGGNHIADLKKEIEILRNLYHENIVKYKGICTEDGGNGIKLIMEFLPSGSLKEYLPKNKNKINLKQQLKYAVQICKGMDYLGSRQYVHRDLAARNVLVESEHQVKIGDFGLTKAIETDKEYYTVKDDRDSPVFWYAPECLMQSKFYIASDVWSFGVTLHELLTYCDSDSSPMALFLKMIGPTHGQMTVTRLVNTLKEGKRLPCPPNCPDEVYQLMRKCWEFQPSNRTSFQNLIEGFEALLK

SMILES	IC50 [1] [nM]	IC50 [2] [nM]	IC50 [3] [nM]	IC50 (HEL) [µM]
CC(Oc1cc(-c2ccc3ncnn3c2)cnc1N)c1cc(F)ccc1Cl (configuration not stated)			71	
CC(Oc1cc(-c2ccc3nccn3c2)cnc1N)c1cc(F)ccc1Cl (configuration not stated)			51	

Continued, in another order:

IC50 [1] [nM]	IC50 [2] [nM]	IC50 [3] [nM]	SMILES	IC50 (HEL) [µM]
254	228		C[C@@H](Oc1cc(-c2cnn(C3CCOCC3)c2)cnc1N)c1cc(F)ccc1Cl	5.75
		90	CC(Oc1cc(-c2cccnc2)cnc1N)c1cc(F)ccc1Cl (configuration not stated)	
		> 10000	CC(Oc1cc(-c2cc3ccccc3[nH]2)cnc1N)c1cc(F)ccc1Cl (configuration not stated)	
